According to US9982045B2, “Anti-CDH6 antibody drug conjugates” (Novartis AG, priority 2014, dated 2018):

How the values were obtained:
[1] = system: CDH6 expressing primary (patient derived) ovarian tumors; assay: Patient-derived primary ovarian tumor xenograft mouse model (Example 18); format: in vivo, nude mice; details: 5 mg/kg i.v. Q14D
Experimental: Mice were enrolled in the study 48 days post implant with a mean tumor volume of 178 mm^3. […] All groups were dosed at 5 mg/kg.

[2] = system: CDH6 expressing cell lines compared to non-expressing cell lines; assay: In vitro cellular activity on panel of CDH6 expressing and non-expressing cell lines; details: OVCAR3 and OVCAR8-CDH6+ compared to OVCAR8; FIG. 12

Substance: NOV0712: anti-CDH6 human IgG1 from HuCAL PLATINUM phage display; binds CDH6 EC5; sequence in Table 5
- Anti-tumor activity (tumor volume) [1]: no inhibitory effect upon tumor growth
- Cellular activity (inhibition of proliferation) [2]: No cellular activity was observed
